Several values for one entry are separate records, joined by “and”; a condition that tells them apart may be missing. Identical values can stand only once. Toxic doses and inconclusive results are not listed. Cut-off read from the data, not from the text of the source: active = T/C of 150% or more; inactive = T/C below 125%.
Test system: L1210 leukemia ip in BDF1 mice, survival T/C
Assay: NCI In Vivo Anticancer Drug Screen. Data for tumor model L1210 Leukemia (intraperitoneal) in B6D2F1 (BDF1) mice
Conditions: higher = longer survival
How it was run: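 Antitumor effect is assessed in tumor-bearing animals. Survival in the compound arm is compared with a vehicle-dosed control arm and expressed as their quotient.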

[1] = endpoint: mean survival time, dose: 37.5 mg/kg/injection, schedule: Q01DX001 (ip), vehicle: Klucel (hydroxypropylcellulose) (HPC)
[2] = endpoint: mean survival time, dose: 100.0 mg/kg/injection, schedule: Q01DX001 (ip), vehicle: saline
[3] = endpoint: mean survival time, dose: 200.0 mg/kg/injection, schedule: Q01DX001 (ip), vehicle: saline
[4] = endpoint: mean survival time, dose: 400.0 mg/kg/injection, schedule: Q01DX001 (ip), vehicle: saline

Measured: T/C

NC(=O)CCC(NC(=O)Cc1ccccc1)C(=O)O (stereo unspecified)
inactive: endpoint: mean survival time, dose: 18.75 mg/kg/injection, schedule: Q01DX001 (ip), vehicle: Klucel (hydroxypropylcellulose) (HPC) 92 % of control | [1] 100 % of control | endpoint: mean survival time, dose: 75.0 mg/kg/injection, schedule: Q01DX001 (ip), vehicle: Klucel (hydroxypropylcellulose) (HPC) 97 % of control

O=C(O)COc1cccc(Cl)c1F
inactive: endpoint: mean survival time, dose: 100.0 mg/kg/injection, schedule: Q04DX002 (ip), vehicle: Klucel (hydroxypropylcellulose) (HPC) 100 % of control | endpoint: mean survival time, dose: 200.0 mg/kg/injection, schedule: Q04DX002 (ip), vehicle: Klucel (hydroxypropylcellulose) (HPC) 107 % of control | endpoint: mean survival time, dose: 400.0 mg/kg/injection, schedule: Q04DX002 (ip), vehicle: Klucel (hydroxypropylcellulose) (HPC) 118 % of control

CCCCC(C#N)(CCCC)C(=O)OCC
inactive: endpoint: mean survival time, dose: 100.0 mg/kg/injection, schedule: Q04DX003 (ip), vehicle: saline with Tween-80 93 % of control | endpoint: mean survival time, dose: 200.0 mg/kg/injection, schedule: Q04DX003 (ip), vehicle: saline with Tween-80 98 % of control

CC1CC=C(/C=N/NC(N)=O)C(C)O1 (stereo unspecified)
inactive: endpoint: mean survival time, dose: 50.0 mg/kg/injection, schedule: Q01DX009 (ip), vehicle: saline with Tween-80 94 % of control | endpoint: mean survival time, dose: 100.0 mg/kg/injection, schedule: Q01DX009 (ip), vehicle: saline with Tween-80 88 % of control | endpoint: mean survival time, dose: 200.0 mg/kg/injection, schedule: Q01DX009 (ip), vehicle: saline with Tween-80 94 % of control

CC1(C)OC2C(N)OC(CO)C2O1 (stereo unspecified)
inactive: endpoint: mean survival time, dose: 100.0 mg/kg/injection, schedule: Q04DX003 (ip), vehicle: saline 95 % of control | endpoint: mean survival time, dose: 200.0 mg/kg/injection, schedule: Q04DX003 (ip), vehicle: saline 110 % of control | endpoint: mean survival time, dose: 400.0 mg/kg/injection, schedule: Q04DX003 (ip), vehicle: saline 104 % of control

C=CC(=O)NCNC(=O)C=C
inactive: endpoint: mean survival time, dose: 50.0 mg/kg/injection, schedule: Q04DX003 (ip), vehicle: carboxymethylcellulose (CMC) 100 % of control | [2] 97 % of control | endpoint: mean survival time, dose: 100.0 mg/kg/injection, schedule: Q04DX003 (ip), vehicle: carboxymethylcellulose (CMC) 110 % of control | [3] 101 % of control | [4] 113 % of control

CCCCCCCCCCCCCCCCCCCCCCCCCCCCCC
inactive: endpoint: mean survival time, dose: 100.0 mg/kg/injection, schedule: Q04DX003 (ip), vehicle: Klucel (hydroxypropylcellulose) (HPC) 93 % of control | endpoint: mean survival time, dose: 200.0 mg/kg/injection, schedule: Q04DX003 (ip), vehicle: Klucel (hydroxypropylcellulose) (HPC) 89 % of control | endpoint: mean survival time, dose: 400.0 mg/kg/injection, schedule: Q04DX003 (ip), vehicle: Klucel (hydroxypropylcellulose) (HPC) 89 % of control

Cc1c2ccccc2c(C)c2c1c(F)cc1ccccc12
inactive: [1] 120 % of control

COc1ccc(/C=C2\CCC3C4(CCCC3(C)C2=O)OCCO4)cc1 (stereo unspecified)
inactive: endpoint: mean survival time, dose: 200.0 mg/kg/injection, schedule: Q01DX009 (ip), vehicle: saline 92 % of control | endpoint: mean survival time, dose: 400.0 mg/kg/injection, schedule: Q01DX009 (ip), vehicle: saline 101 % of control

CC(C)/C=C/C1(C(C)C)C(=O)NC(=S)NC1=O
inactive: endpoint: mean survival time, dose: 75.0 mg/kg/injection, schedule: Q01DX001 (ip), vehicle: saline 95 % of control | endpoint: mean survival time, dose: 150.0 mg/kg/injection, schedule: Q01DX001 (ip), vehicle: saline 100 % of control | endpoint: mean survival time, dose: 300.0 mg/kg/injection, schedule: Q01DX001 (ip), vehicle: saline 98 % of control

CCC(=O)Nc1cc(C)c(C)cc1C
inactive: endpoint: mean survival time, dose: 100.0 mg/kg/injection, schedule: Q01DX009 (ip), vehicle: Klucel (hydroxypropylcellulose) (HPC) 100 % of control | endpoint: mean survival time, dose: 200.0 mg/kg/injection, schedule: Q01DX009 (ip), vehicle: Klucel (hydroxypropylcellulose) (HPC) 105 % of control

CC(C)(C)CC(=O)CC(C)(C)C
inactive: [2] 98 % of control | [3] 87 % of control | [4] 98 % of control

CC/C(=C(/CC)c1ccc(O)cc1)c1ccc(O)cc1
inactive: endpoint: mean survival time, dose: 6.44 mg/kg/injection, schedule: Q01DX Z (sc), vehicle: steriod suspending solution 98 % of control | endpoint: mean survival time, dose: 12.88 mg/kg/injection, schedule: Q01DX Z (sc), vehicle: steriod suspending solution 109 % of control | endpoint: mean survival time, dose: 25.0 mg/kg/injection, schedule: Q01DX009 (ip), vehicle: carboxymethylcellulose (CMC) 87 % of control | endpoint: mean survival time, dose: 25.75 mg/kg/injection, schedule: Q01DX Z (sc), vehicle: steriod suspending solution 107 % of control | endpoint: mean survival time, dose: 50.0 mg/kg/injection, schedule: Q01DX001 (ip), vehicle: saline 90 % of control | endpoint: mean survival time, dose: 50.0 mg/kg/injection, schedule: Q01DX009 (ip), vehicle: carboxymethylcellulose (CMC) 94 % of control | endpoint: mean survival time, dose: 51.5 mg/kg/injection, schedule: Q01DX Z (sc), vehicle: steriod suspending solution 100 % of control | [2] 94 % of control | endpoint: mean survival time, dose: 100.0 mg/kg/injection, schedule: Q01DX009 (ip), vehicle: carboxymethylcellulose (CMC) 95 % of control | [3] 95 % of control | endpoint: mean survival time, dose: 200.0 mg/kg/injection, schedule: Q01DX009 (ip), vehicle: carboxymethylcellulose (CMC) 91 % of control | [4] 87 % of control | endpoint: median survival time, dose: 8.0 mg/kg/injection, schedule: Q03HX016 (ip), vehicle: saline with Tween-80 97 % of control | endpoint: median survival time, dose: 8.0 mg/kg/injection, schedule: Q03HX024 (ip), vehicle: saline with Tween-80 98 % of control | endpoint: median survival time, dose: 12.5 mg/kg/injection, schedule: Q01DX009 (sc), vehicle: steriod suspending solution 100 % of control and 111 % of control | endpoint: median survival time, dose: 16.0 mg/kg/injection, schedule: Q01DX009 (ip), vehicle: saline with Tween-80 113 % of control | endpoint: median survival time, dose: 16.0 mg/kg/injection, schedule: Q03HX008 (ip), vehicle: saline with Tween-80 101 % of control | endpoint: median survival time, dose: 16.0 mg/kg/injection, schedule: Q03HX016 (ip), vehicle: saline with Tween-80 97 % of control | endpoint: median survival time, dose: 16.0 mg/kg/injection, schedule: Q03HX024 (ip), vehicle: saline with Tween-80 91 % of control | endpoint: median survival time, dose: 25.0 mg/kg/injection, schedule: Q01DX009 (sc), vehicle: steriod suspending solution 100 % of control and 106 % of control | endpoint: median survival time, dose: 32.0 mg/kg/injection, schedule: Q01DX009 (ip), vehicle: saline with Tween-80 110 % of control | endpoint: median survival time, dose: 32.0 mg/kg/injection, schedule: Q03HX008 (ip), vehicle: saline with Tween-80 97 % of control | endpoint: median survival time, dose: 32.0 mg/kg/injection, schedule: Q03HX016 (ip), vehicle: saline with Tween-80 97 % of control | endpoint: median survival time, dose: 32.0 mg/kg/injection, schedule: Q03HX024 (ip), vehicle: saline with Tween-80 98 % of control | endpoint: median survival time, dose: 50.0 mg/kg/injection, schedule: Q01DX009 (sc), vehicle: steriod suspending solution 100 % of control and 105 % of control | endpoint: median survival time, dose: 64.0 mg/kg/injection, schedule: Q01DX009 (ip), vehicle: saline with Tween-80 103 % of control | endpoint: median survival time, dose: 64.0 mg/kg/injection, schedule: Q03HX008 (ip), vehicle: saline with Tween-80 103 % of control | endpoint: median survival time, dose: 64.0 mg/kg/injection, schedule: Q03HX016 (ip), vehicle: saline with Tween-80 100 % of control | endpoint: median survival time, dose: 64.0 mg/kg/injection, schedule: Q03HX024 (ip), vehicle: saline with Tween-80 94 % of control | endpoint: median survival time, dose: 64.0 mg/kg/injection, schedule: Q04DX003 (ip), vehicle: saline with Tween-80 100 % of control | endpoint: median survival time, dose: 64.0 mg/kg/injection, schedule: Q08DX002 (ip), vehicle: saline with Tween-80 106 % of control | endpoint: median survival time, dose: 100.0 mg/kg/injection, schedule: Q01DX009 (sc), vehicle: steriod suspending solution 100 % of control and 105 % of control | endpoint: median survival time, dose: 128.0 mg/kg/injection, schedule: Q01DX001 (ip), vehicle: saline with Tween-80 107 % of control | endpoint: median survival time, dose: 128.0 mg/kg/injection, schedule: Q01DX009 (ip), vehicle: saline with Tween-80 102 % of control | endpoint: median survival time, dose: 128.0 mg/kg/injection, schedule: Q04DX003 (ip), vehicle: saline with Tween-80 101 % of control | endpoint: median survival time, dose: 128.0 mg/kg/injection, schedule: Q08DX002 (ip), vehicle: saline with Tween-80 104 % of control | endpoint: median survival time, dose: 256.0 mg/kg/injection, schedule: Q01DX001 (ip), vehicle: saline with Tween-80 109 % of control | endpoint: median survival time, dose: 256.0 mg/kg/injection, schedule: Q04DX003 (ip), vehicle: saline with Tween-80 107 % of control | endpoint: median survival time, dose: 256.0 mg/kg/injection, schedule: Q08DX002 (ip), vehicle: saline with Tween-80 98 % of control | endpoint: median survival time, dose: 512.0 mg/kg/injection, schedule: Q01DX001 (ip), vehicle: saline with Tween-80 108 % of control | endpoint: median survival time, dose: 512.0 mg/kg/injection, schedule: Q08DX002 (ip), vehicle: saline with Tween-80 92 % of control | endpoint: median survival time, dose: 1024.0 mg/kg/injection, schedule: Q08DX002 (ip), vehicle: saline with Tween-80 102 % of control | endpoint: median survival time, dose: 2048.0 mg/kg/injection, schedule: Q08DX002 (ip), vehicle: saline with Tween-80 102 % of control

From PubChem BioAssay AID248 (DTP/NCI, 2004)
